According to patent publication US12409112B2, “Pressurized nanoemulsion” (Biofrontera Bioscience GmbH, priority 2023, dated 2025):

Key:
[1] = ALA content over storage time in BF200 with PX=2%; type: physicochemical; conditions: BF200 with PX=2% and 3% ALA
Experimental: Nanoemulsion formulations BF200 PX=2% glass and BF200 PX=2% foam were prepared as described in Example 5. The nanoemulsion formulations were stored at 25° C. and 2-8° C. The content of ALA was determined at 0 (starting point) and various time points during the 36 months storage period.

[2] = cited from earlier work
[3] = room temperature; cited from earlier work
[4] = TC content over storage time in BF220 with PX=4%; type: physicochemical; conditions: BF220 with PX=4% and 0.1% TC
Experimental: Nanoemulsion formulations BF220 TC=0.1% glass and BF220 TC=0.1% foam were prepared as described in Example 6. The nanoemulsion formulations were stored at 2-8° C. The content of TC was determined at 0 (starting point) and various time points during the 36 months storage period.

| Compound | Preservation of API content, pressurized cans versus conventional storing units (glass vials) ([1]; 25° C. and 2-8° C., all conditions) | ALA content ([1]; after 36 months storage at 2-25° C.) | octanol-water partition coefficient (log P) [2] | Stability in aqueous formulations [3] | Preservation of API content, pressurized cans versus conventional storing units (glass vials) ([4]; 2-8° C.) | TC content ([4]; after 36 months storage at 2-8° C.) |
| --- | --- | --- | --- | --- | --- | --- |
| NCC(=O)CCC(=O)O [ALA, 5-aminolevulinic acid] | better | at least 90% | – | – | – | – |
| C=CC[C@@H]1/C=C(\C)C[C@H](C)C[C@H](OC)[C@H]2O[C@@](O)(C(=O)C(=O)N3CCCC[C@H]3C(=O)O[C@H](/C(C)=C/[C@@H]3CC[C@@H](O)[C@H](OC)C3)[C@H](C)[C@@H](O)CC1=O)[C@H](C)C[C@@H]2OC [TC, Tacrolimus] | – | – | > 3 | approx. 90 days | better | at least 90% |
